System: skin and eyes
Settings: aqueous solution, pH=3.0

In the case of O=C(O)CO [glycolic acid], the “sting or burning when applied to freshly shaven skin” value is reported as “stings or burns”.

Source: patent publication US20100129465A1, “Methods and Compositions Related to Acne Treatment” (priority 2008, published 2010)
